# Source: US9828344B2, “Inhibitors of the notch signaling pathway and secretion for use in medicine” (Leibniz-Institut für Altersforschung Fritz-Lipmann-Institut …, priority 2012, dated 2017)
# Peptide text beside a SMILES is read from it. * marks the point of attachment. Cbz = O=C(OCc1ccccc1)*; OtBu = CC(C)(C)O*
# Assays:
# [1] = test system: endogenous Notch signaling; assay: Luciferase Notch reporter assay in C2C12 cells transfected with Delta; type: cell-based; conditions: 16 h
# Method: Cells were incubated with DAPT or 10 μM of the indicated compounds (50 μM in case of FLI-15 and -20) and after 16 h a luciferase assay was performed. […] Changes in relative gene expression levels (fold change) relative to the expression levels in DMSO controls are represented as the mean+/−SD, asterisks indicate p<0.01. Each measurement was taken from two independent samples. Each reaction was measured in triplicate. Changes in the relative expression of ngn1 were standardized to the expression of the housekeeping gene ef1a at 20 hpf. c) ISH with riboprobes specific for ngn1 was performed on dechorionated stage 4 hpf zebrafish embryos. Anterior is to the left, dorsal to the top. Magnifications of the somite region (small box) are shown. Arrows indicate larger ngn1 clusters or stronger ngn1 staining. s, sensory neurons; i, intermediate neurons; m, motor neurons.
# We wanted to test whether the results obtained with the NotchΔE-EGFP construct are relevant for endogenous Notch signaling. Therefore we made use of C2C12 cells, a well established model for muscle development that expresses endogenous Notch^21,22. After stimulating endogenous Notch signaling by transfecting the Notch ligand Delta, Notch activity was measured by a luciferase assay using a Notch reporter^15 in the presence or absence of compounds (FIG. 4a). […] Next, we tested whether selected compounds would affect Notch signaling in vivo. […] Compounds were added to dechorionated stage 4 hpf zebrafish embryos and the effects were analyzed after 24 h by morphological inspection of somite formation. Phenotypes were ranked to four categories, normal somites, mild somite defects, strong somite defects and developmental delay. […] As an additional parameter we decided to analyze Notch-dependent genes involved in neurogenesis. Primary neurogenesis in zebrafish involves the selection of neuroblasts (repressed by Notch) from proneural clusters (Notch expressing cells), a process regulated in a negative manner by Notch-dependent lateral inhibition^25. Accordingly, neuroblast cells that express the neuronal specification factor neurogenin (ngn1^26) became more abundant when Notch signaling was impaired, for instance upon DAPT treatment^23,27. qPCR analyses on mRNA extracted from equivalent sets of embryos was performed for ngn1 expression (FIG. 4b). […] To confirm the data obtained by qPCR, whole-mount in-situ hybridizations (ISH) using an ngn1 specific riboprobe were performed (FIG. 4c, FIG. 11c). […] Taken together, FLI-06, -14, -15, -19 and -20 inhibited endogenous Notch signaling in vitro and in vivo, corroborating the NotchΔE-EGFP reporter data.
# Endogenous Notch signaling in C2C12 was determined by a luciferase assay using a 12xCSL-luciferase reporter and transfected Delta as described before^15.
# γ-secretase = assay: In vitro γ-secretase assay with isolated membranes; type: biochemical; conditions: 37° C.
# Method: (§1) FIG. 3: Effect of compounds on NotchΔE-EGFP, APP and Klotho trafficking and processing. a) HEK293 stably expressing APPswe or Klotho (KI) were incubated with DAPT or compounds (10 μM) for 16 h. Media were collected, cells lysed and both assayed by Western blotting using indicated antibodies. m, mature; im, immature; s, shedded ectodomain; CTF, C-terminal fragment. b) Membranes from HeLa-NotchΔE-EGFP and APPswe cells were isolated and subjected to a γ-secretase in vitro assay in the presence of DAPT or compounds as indicated. NICD and AICD were detected by Western Blotting using antibodies against the C-terminus of APP (top) or antibodies specific for NICD (bottom). c) Quantitation from 5 independent experiments.
# To test whether FLI-06 affected other membrane proteins, Klotho, a type I protein processed like APP and Notch^20, was analyzed. […] To analyze γ-secretase activity, in vitro assays using isolated membranes were performed (FIG. 3b, c). Production of NICD-EGFP and AICD (APP intracellular domain) were assayed. Both were produced in vitro at 37° C. but not at 4° C., and their production was inhibited by DAPT.
# For assaying AICD formation, membranes of HEK293 cells stably expressing APP with the Swedish mutation were isolated and incubated for 4 h at 37° C. according to Sastre et al.^52. For assaying NICD formation, membranes from HeLa NotchΔE-EGFP cells were mixed with membranes from HeLa NotchΔE-EGFP cells that were pre-treated with 10 μM DAPT overnight to enrich substrate. After incubation samples were loaded onto either 8% SDS-PA gels (NICD) or 10-20% Tris-Tricine gels (AICD), blotted and probed with cleaved-Notch antibody or antibody 6687 against APP C-terminus^53. Chemoluminescence was quantified on a LAS-4000 (Fuji) with MultiGauge software.
# APP = APP processing in HEK293 cells stably expressing APPswe; type: cell-based; conditions: 10 μM, 16 h
# Method: as §1
# To test if the compounds that affected NotchΔE-EGFP processing also affected APP processing, HEK293 cells were used that stably expressed APPswe, a mutated APP that yields robust amounts of Aβ^18. […] All other compounds had no effect on APPCTF or Aβ.
# APP, APPs, APPCTF and Aβ detection was as described before^54 using antibodies 22C11 for APP and APPs, 6687 for APPCTF and 3552 and 2D8 for Aβ. Klotho was detected as described in Bloch et al.^20. Chemoluminescence was quantified on a LAS-4000 (Fuji) with MultiGauge software.
# NotchΔE-EGFP [2] = assay: Reporter localization in U2OS cells stably expressing NotchΔE-EGFP; type: cell-based; conditions: 10 iM, 18 h
# Method: FIG. 9: Compound effects are not cell-type specific. U2OS cells stably expressing NotchΔE-EGFP were incubated for 18 h with 10 iM compounds as indicated, fixed and imaged by fluorescence microscopy. […] Arrows, plasma membrane; arrowheads, ER. Asterisks indicate cells where the ER collapsed to large aggregates. Scalebar, 10 im.
# NotchΔE-EGFP [3] = assay: Fluorescence microscopy of reporter localization in HeLa NotchΔE-EGFP cells; type: cell-based; conditions: for localization of NotchΔE-EGFP/NICD-EGFP: 10 μM compound, 24 h; for toxicity in cells: inferred from reversibility after wash-out
# Method: FIG. 10: Phenotypes of Notch inhibitors are fully reversible. HeLa NotchΔE-EGFP cells plated in LabTek coverglass were incubated for 18 h with 10 iM of indicated compounds, washed and incubated for indicated times in cell culture medium. Cells were imaged by live-microscopy. […] Scalebar, 10 im.
# For a detailed analysis of subcelluar distribution of NotchΔE/NICD the resolution of the HCS images was not sufficient. Therefore, the reporter cell line was plated on coverslips and incubated with 10 μM of individual compounds from the final hit list. After 24 h the localization of NotchΔE-EGFP/NICD-EGFP was determined by fluorescence microscopy. […] (FIG. 8).
# Immunofluorescence stainings were made using standard procedures^55. Imaging was performed on a Zeiss Axiovert200 or an Axio Imager, using 63× 1.4NA objectives and Zeiss Axiovision software. For live-imaging cells were plated on Lab-Tek chambered coverglass (Thermo-Fisher). Images were assembled and processed using Adobe Photoshop. For displaying weakly stained ER-tubules/sheets non-linear changes in gamma-settings were used.
SMILES,inhibition of endogenous Notch signaling ([1]; 10 μM),NICD-EGFP and AICD production in isolated membranes (γ-secretase),APPCTF in cells (APP),APPs (shedded ectodomain) secretion (APP),Aβ in the cell supernatant (APP),glycosylation pattern of APP (APP),localization of NotchΔE-EGFP in U2OS cells (NotchΔE-EGFP [2]),localization of NotchΔE-EGFP/NICD-EGFP (NotchΔE-EGFP [3]),toxicity in cells (NotchΔE-EGFP [3]),inhibition of endogenous Notch signaling ([1]; 50 μM)
"CC1=C(C(=O)OC2CCCCC2)C(c2ccc([N+](=O)[O-])cc2)C2=C(CC(C)(C)CC2=O)N1 (stereo not drawn) [FLI-06, Cyclohexyl 4-(4′-nitrophenyl)-2,7,7-trimethyl-5-oxo-1,4,5,6,7,8-hexahydroquinoline-3-carboxylate]",strongly,did not affect γ-secretase in isolated membranes,no APPCTF accumulated,abolished the shedding of APPs,essentially disappeared,changed the glycosylation pattern of APP,ER accumulation of the reporter and in some cells aggregation,reduced nuclear fluorescence and localization in intracellular membranes,not acutely toxic in cells,
Cn1c2ccccc2c2c(C(=O)N3CCN(Cc4ccc5c(c4)OCO5)CC3)cn(C3CCCC3)c(=O)c21 [FLI-14],strongly,did not affect γ-secretase in isolated membranes,accumulated,,essentially disappeared,,PM accumulation similar to DAPT,accumulation of the reporter at the PM and in perinuclear Golgi-like structures,not acutely toxic in cells,
Cc1ccc(NC(=O)C(NS(=O)(=O)c2cccc3nsnc23)C(C)C)nc1 (stereo not drawn) [FLI-15],hardly affected Notch signaling,clearly reduced NICD-EGFP and AICD production,accumulated,,weakly reduced,,PM accumulation similar to DAPT,accumulation of the reporter at the PM and in perinuclear Golgi-like structures,not acutely toxic in cells,remarkably
CC(C)CC(NC(=O)C(Cc1ccccc1)NC(=O)C1CCCN1C(=O)OCc1ccccc1)C(=O)OC(C)(C)C (stereo not drawn) [FLI-19] (Cbz-Pro-Phe-Leu-OtBu; configuration not given here),considerably,did not affect γ-secretase in isolated membranes,,reduced APPs secretion,,,PM accumulation similar to DAPT,accumulation of the reporter at the PM and in perinuclear Golgi-like structures,not acutely toxic in cells,
CC(=O)Nc1ccc2nc(NC(=O)CC34CC5CC(CC(C5)C3)C4)sc2c1 [FLI-20],hardly affected Notch signaling,clearly reduced NICD-EGFP and AICD production,accumulated,reduced APPs secretion,weakly reduced,,PM accumulation similar to DAPT,accumulation of the reporter at the PM and in perinuclear Golgi-like structures,not acutely toxic in cells,remarkably
